Measurements as given in BindingDB's records for doi:10.1124/jpet.102.045674 (Pudue Pharma Discovery Research, 2003).

Assays:
[1] = biological target: Estrogen receptor (Rattus norvegicus, UniProt P06211)
[2] = biological target: Cysteinyl leukotriene receptor 1 (Rattus norvegicus, UniProt Q924T8)
[3] = biological target: Glutamate receptor ionotropic, kainate 1 (Rattus norvegicus, UniProt P22756)
[4] = biological target: Small conductance calcium-activated potassium channel protein 1 (Rattus norvegicus, UniProt P70606)
[5] = biological target: Muscarinic acetylcholine receptor M2 (Rattus norvegicus, UniProt P10980)
[6] = biological target: Norepinephrine transporter (Rattus norvegicus, UniProt Q9JIA2)
[7] = biological target: Glutamate decarboxylase 2 (Rattus norvegicus, UniProt Q05683)
[8] = biological target: Nitric oxide synthase, brain (Rattus norvegicus, UniProt P29476)
Sequence of Nitric oxide synthase, brain (P29476 whole entry): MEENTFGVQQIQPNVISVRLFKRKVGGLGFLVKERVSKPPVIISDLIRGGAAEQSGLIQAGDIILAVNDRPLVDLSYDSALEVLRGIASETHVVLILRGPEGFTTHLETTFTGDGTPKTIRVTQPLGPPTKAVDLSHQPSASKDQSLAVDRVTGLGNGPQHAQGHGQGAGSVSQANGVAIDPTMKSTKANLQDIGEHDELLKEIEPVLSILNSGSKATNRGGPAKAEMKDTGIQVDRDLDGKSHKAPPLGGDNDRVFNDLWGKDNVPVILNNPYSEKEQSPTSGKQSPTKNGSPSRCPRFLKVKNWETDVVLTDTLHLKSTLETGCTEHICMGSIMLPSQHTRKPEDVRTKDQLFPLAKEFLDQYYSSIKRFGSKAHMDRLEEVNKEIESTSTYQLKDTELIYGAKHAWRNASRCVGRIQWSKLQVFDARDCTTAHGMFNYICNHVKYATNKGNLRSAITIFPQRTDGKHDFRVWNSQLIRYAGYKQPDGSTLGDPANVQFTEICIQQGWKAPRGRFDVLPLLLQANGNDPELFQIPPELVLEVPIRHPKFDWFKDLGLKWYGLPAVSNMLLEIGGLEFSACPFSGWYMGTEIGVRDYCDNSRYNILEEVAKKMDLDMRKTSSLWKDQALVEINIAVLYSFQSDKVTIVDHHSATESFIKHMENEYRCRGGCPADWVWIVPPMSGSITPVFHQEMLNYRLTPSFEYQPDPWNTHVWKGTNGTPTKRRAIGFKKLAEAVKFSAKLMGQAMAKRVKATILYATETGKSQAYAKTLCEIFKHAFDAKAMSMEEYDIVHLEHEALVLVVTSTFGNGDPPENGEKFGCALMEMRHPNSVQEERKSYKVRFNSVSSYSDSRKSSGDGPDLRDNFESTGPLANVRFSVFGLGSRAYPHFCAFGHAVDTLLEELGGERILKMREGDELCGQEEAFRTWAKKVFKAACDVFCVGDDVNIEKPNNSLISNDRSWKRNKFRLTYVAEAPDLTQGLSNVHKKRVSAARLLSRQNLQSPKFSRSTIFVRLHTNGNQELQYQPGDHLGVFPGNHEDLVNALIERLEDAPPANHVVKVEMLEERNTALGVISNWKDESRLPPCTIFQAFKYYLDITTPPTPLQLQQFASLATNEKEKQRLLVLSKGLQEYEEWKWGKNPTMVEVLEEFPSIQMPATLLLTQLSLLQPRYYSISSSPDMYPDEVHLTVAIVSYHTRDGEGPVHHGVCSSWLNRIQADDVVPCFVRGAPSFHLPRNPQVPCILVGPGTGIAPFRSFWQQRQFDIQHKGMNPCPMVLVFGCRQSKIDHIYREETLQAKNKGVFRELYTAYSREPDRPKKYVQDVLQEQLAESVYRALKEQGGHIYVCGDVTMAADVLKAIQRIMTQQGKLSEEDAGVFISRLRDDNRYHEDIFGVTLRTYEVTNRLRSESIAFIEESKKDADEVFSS

[9] = biological target: Leukotriene B4 receptor 1 (Rattus norvegicus, UniProt Q9R0Q2)
Sequence of Leukotriene B4 receptor 1 (Q9R0Q2 whole entry): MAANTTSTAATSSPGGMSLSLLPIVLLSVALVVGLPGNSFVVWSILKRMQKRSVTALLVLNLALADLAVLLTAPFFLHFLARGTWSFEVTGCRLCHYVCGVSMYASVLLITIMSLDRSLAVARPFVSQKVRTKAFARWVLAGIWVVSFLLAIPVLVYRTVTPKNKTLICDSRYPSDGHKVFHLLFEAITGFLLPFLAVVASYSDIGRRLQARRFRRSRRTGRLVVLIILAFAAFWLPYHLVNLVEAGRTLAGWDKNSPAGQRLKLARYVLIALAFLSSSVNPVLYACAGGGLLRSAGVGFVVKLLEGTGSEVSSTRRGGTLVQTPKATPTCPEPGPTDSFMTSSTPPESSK

[10] = biological target: Platelet-activating factor receptor (Rattus norvegicus, UniProt P46002)
[11] = biological target: Glycine receptor subunit alpha-1 (Rattus norvegicus, UniProt P07727)
[12] = biological target: Alpha-2C adrenergic receptor (Rattus norvegicus, UniProt P22086)
Sequence of Alpha-2C adrenergic receptor (P22086 whole entry): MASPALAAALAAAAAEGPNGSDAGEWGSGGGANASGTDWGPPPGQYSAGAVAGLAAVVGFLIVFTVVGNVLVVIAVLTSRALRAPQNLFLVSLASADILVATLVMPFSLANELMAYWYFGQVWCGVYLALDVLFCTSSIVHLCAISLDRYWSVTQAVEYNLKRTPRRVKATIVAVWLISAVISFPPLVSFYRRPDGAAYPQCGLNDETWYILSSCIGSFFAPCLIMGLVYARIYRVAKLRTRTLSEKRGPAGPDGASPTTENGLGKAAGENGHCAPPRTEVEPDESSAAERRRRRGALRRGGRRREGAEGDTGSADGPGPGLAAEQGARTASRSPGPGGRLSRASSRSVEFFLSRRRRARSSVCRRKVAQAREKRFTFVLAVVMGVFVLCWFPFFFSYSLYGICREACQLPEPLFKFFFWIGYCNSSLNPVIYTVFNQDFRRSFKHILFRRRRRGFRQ

[13] = biological target: Muscarinic acetylcholine receptor M1 (Rattus norvegicus, UniProt P08482)
[14] = biological target: Beta-2 adrenergic receptor (Rattus norvegicus, UniProt P10608)
Sequence of Beta-2 adrenergic receptor (P10608 whole entry): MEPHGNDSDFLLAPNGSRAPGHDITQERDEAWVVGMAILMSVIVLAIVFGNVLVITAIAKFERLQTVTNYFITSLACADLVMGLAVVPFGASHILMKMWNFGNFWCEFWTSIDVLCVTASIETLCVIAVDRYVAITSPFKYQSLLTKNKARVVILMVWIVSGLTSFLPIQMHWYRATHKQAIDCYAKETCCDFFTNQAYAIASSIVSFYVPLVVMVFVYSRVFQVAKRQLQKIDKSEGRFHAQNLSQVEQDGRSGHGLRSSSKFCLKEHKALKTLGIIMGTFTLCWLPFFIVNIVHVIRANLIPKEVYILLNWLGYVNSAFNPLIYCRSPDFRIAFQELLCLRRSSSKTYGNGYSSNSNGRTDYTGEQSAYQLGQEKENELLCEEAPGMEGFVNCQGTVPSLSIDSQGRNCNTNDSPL

[15] = biological target: Histamine H2 receptor (Rattus norvegicus, UniProt P25102)
[16] = biological target: Thromboxane A2 receptor (Rattus norvegicus, UniProt P34978)
Sequence of Thromboxane A2 receptor (P34978 whole entry): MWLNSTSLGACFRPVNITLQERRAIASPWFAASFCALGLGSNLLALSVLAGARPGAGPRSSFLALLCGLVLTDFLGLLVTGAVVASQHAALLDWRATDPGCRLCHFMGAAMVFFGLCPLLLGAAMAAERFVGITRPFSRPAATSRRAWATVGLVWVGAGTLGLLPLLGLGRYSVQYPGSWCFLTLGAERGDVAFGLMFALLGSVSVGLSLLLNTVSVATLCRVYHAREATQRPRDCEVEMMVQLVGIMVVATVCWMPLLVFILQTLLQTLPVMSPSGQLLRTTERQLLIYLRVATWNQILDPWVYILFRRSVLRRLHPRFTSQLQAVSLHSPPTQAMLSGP

[17] = biological target: Endothelin-1 receptor (Rattus norvegicus, UniProt P26684)
[18] = biological target: Sodium channel protein type 2 subunit alpha (Rattus norvegicus, UniProt P04775)
[19] = biological target: Nicotinic acetylcholine receptor (Rattus leucopus, UniProt Q62594)
Sequence of Nicotinic acetylcholine receptor (Q62594 whole entry): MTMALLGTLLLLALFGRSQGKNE

[20] = biological target: Sodium-dependent dopamine transporter (Rattus norvegicus, UniProt P23977)
Sequence of Sodium-dependent dopamine transporter (P23977 whole entry): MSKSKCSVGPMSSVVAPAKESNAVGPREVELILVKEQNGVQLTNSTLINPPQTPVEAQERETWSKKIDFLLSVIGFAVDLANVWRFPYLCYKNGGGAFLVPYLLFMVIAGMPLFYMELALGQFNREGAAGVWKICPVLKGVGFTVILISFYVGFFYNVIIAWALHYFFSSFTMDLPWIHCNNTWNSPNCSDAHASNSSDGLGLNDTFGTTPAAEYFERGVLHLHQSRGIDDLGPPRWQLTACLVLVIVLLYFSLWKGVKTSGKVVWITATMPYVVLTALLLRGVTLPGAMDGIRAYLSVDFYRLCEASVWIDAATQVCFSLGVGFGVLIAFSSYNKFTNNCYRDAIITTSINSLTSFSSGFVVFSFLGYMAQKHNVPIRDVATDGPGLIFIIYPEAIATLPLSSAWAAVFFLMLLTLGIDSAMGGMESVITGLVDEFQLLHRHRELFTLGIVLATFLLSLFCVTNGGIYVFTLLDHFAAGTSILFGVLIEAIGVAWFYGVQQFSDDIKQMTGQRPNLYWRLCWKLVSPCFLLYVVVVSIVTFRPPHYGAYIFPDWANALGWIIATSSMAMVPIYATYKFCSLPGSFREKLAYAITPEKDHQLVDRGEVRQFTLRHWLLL

[21] = biological target: Thyrotropin-releasing hormone receptor (Rattus norvegicus) (UniProt Q01717)
[22] = biological target: Alpha-1A adrenergic receptor (Rattus norvegicus, UniProt P43140)
[23] = biological target: B2 bradykinin receptor (Rattus norvegicus, UniProt P25023)
[24] = biological target: Type-1 angiotensin II receptor A (Rattus norvegicus, UniProt P25095)
[25] = biological target: Gamma-aminobutyric acid receptor subunit alpha-1 (Rattus norvegicus, UniProt P62813)
[26] = biological target: Melatonin receptor type 1A (Rattus norvegicus, UniProt P49218)
Sequence of Melatonin receptor type 1A (P49218 whole entry): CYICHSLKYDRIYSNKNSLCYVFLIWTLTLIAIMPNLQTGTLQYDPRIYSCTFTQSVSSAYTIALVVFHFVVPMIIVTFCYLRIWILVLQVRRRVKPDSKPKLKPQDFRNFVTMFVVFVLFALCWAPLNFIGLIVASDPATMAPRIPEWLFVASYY

[27] = biological target: ATP-sensitive inward rectifier potassium channel 1 (Rattus norvegicus, UniProt P35560)
[28] = biological target: D(1A) dopamine receptor (Rattus norvegicus, UniProt P18901)
[29] = biological target: Substance-P receptor (Rattus norvegicus, UniProt P14600)
[30] = biological target: Sodium channel protein type 1 subunit alpha (Rattus norvegicus, UniProt P04774)
[31] = biological target: Choline O-acetyltransferase (Rattus norvegicus, UniProt P32738)
[32] = biological target: Hrh3 protein (Rattus norvegicus, UniProt Q5PPG3)
Sequence of Hrh3 protein (Q5PPG3 whole entry): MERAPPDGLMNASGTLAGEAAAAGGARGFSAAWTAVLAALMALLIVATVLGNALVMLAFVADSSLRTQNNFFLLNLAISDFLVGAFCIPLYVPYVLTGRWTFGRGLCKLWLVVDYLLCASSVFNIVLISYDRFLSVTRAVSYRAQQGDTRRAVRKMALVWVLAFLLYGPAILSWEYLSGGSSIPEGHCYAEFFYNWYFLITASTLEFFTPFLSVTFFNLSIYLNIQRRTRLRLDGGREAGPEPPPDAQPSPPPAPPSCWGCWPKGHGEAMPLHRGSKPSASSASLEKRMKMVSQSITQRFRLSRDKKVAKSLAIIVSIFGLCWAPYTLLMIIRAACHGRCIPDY

[33] = biological target: Amine oxidase [flavin-containing] B (Rattus norvegicus, UniProt P19643)
[34] = biological target: Oxytocin receptor (Rattus norvegicus, UniProt P70536)
[35] = biological target: Gamma-aminobutyric acid (GABA) B receptor 1 (Rattus norvegicus, UniProt Q6MFX8)
[36] = biological target: Androgen receptor (Rattus norvegicus) (UniProt P15207)
[37] = biological target: Substance-K receptor (Rattus norvegicus, UniProt P16610)
Sequence of Substance-K receptor (P16610 whole entry): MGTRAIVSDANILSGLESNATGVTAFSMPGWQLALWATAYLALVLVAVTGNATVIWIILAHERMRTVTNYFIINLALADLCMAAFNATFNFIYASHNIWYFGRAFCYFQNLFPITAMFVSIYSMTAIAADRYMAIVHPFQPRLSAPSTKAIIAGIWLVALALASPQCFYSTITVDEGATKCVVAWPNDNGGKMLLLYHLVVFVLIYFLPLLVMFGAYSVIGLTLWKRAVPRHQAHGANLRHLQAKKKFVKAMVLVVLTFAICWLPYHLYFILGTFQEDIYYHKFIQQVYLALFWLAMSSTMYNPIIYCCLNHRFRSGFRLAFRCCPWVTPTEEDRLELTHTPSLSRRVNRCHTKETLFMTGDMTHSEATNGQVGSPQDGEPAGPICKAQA

[38] = biological target: Vasopressin V1a receptor (Rattus norvegicus) (UniProt P30560)
[39] = biological target: Type-2 angiotensin II receptor (Rattus norvegicus, UniProt P35351)
[40] = biological target: Corticotropin releasing factor receptor (Rattus norvegicus) (UniProt P35353)

Measured: Ki

Sequence of Cysteinyl leukotriene receptor 1 (Q924T8 whole entry): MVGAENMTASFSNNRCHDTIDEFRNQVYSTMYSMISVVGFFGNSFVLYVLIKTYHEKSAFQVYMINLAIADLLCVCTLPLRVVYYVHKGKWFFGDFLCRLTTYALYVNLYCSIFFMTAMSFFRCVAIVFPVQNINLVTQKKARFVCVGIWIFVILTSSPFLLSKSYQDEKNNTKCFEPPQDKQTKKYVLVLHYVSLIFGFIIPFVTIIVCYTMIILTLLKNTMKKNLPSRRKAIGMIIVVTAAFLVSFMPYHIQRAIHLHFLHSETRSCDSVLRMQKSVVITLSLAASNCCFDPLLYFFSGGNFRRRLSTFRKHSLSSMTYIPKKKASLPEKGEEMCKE

CC(C)(C)c1ccc(NC(=O)N2CCN(c3ncccc3Cl)CC2)cc1 [BCTC]
> 10 µM: all assays above
